# Legend:
# Assay type in all cases: cell-based
# [1] = tested on: Salmonella heidellberg X-514; assay: Gradient plate in vitro MIC, X514; settings: X514, G-; for MIC: Salmonella, read-out: minimum inhibitory concentration (MIC)
# Source text: (§1) The data which follow are minimum inhibitory concentrations (MIC) in micrograms of compound per milliliter of agar medium in standard gradient plate in vitro tests against various Gram positive and Gram negative microorganisms. The data given here are for compounds satisfying the general formula [drawing 25] where R and X are as defined in the table which follows:
# (§2) 1. The gradient plate procedure used is essentially that described by
# (§3) Bryson and Szybalski in 1952 (Science, 116, pp. 45-46). The inoculum
# (§4) 3. Gram negative microorganism identifications:
# X-514 is Salmonella heidellberg
# [2] = tested on: penicillin-resistant Staphylococcus aureus strain V-41; assay: Gradient plate in vitro MIC, strain V41; settings: V41, G+, read-out: minimum inhibitory concentration (MIC)
# Source text: as §1, §2, §3
# (§5) treatment method used for penicillin-resistant Staphlococci was reported
# (§6) by Godzeski et al. in Antimicrobial Agents and Chemotherapy, May, 1961,
# (§7) 2. Gram positive microorganism identifications are all
# (§8) penicillin-resistant Staphylococcus aureus strains V-41, V-32, X-400,
# (§9) V-84. X-400 is also Methicillin-resistant.
# [3] = tested on: Enterobacter aerogenes X-68; assay: Gradient plate in vitro MIC, X68; settings: X68, G-; for MIC: Klebsiella aerogenes, read-out: minimum inhibitory concentration (MIC)
# Source text: as §1, §2, §3, §4
# X-68 is Enterobacter aerogenes
# [4] = tested on: Klebsiella pneumonia X-26; assay: Gradient plate in vitro MIC, X26; settings: X26, G-; for MIC: Klebsiella pneumoniae, read-out: minimum inhibitory concentration (MIC)
# Source text: as §1, §2, §3, §4
# X-26 is Klebsiella pneumonia
# [5] = tested on: penicillin-resistant, Methicillin-resistant Staphylococcus aureus strain X-400; assay: Gradient plate in vitro MIC, strain X400; settings: X400, G+, penicillin- and Methicillin-resistant; for MIC: Staphylococcus aureus, read-out: minimum inhibitory concentration (MIC)
# Source text: as §1, §2, §3, §5, §6, §7, §8, §9
# [6] = tested on: Escherichia coli N-10; assay: Gradient plate in vitro MIC, N10; settings: N10, G-; for MIC: Escherichia coli, read-out: minimum inhibitory concentration (MIC)
# Source text: as §1, §2, §3, §4
# N-10 is Escherichia coli
# [7] = tested on: Serratia marcescens X-99; assay: Gradient plate in vitro MIC, X99; settings: X99, G-; for MIC: Serratia marcescens, read-out: minimum inhibitory concentration (MIC)
# Source text: as §1, §2, §3, §4
# X-99 is Serratia marcescens
# [8] = tested on: Pseudomonas aerogenosa X-528; assay: Gradient plate in vitro MIC, X528; settings: X528, G-; for MIC: Pseudomonas, read-out: minimum inhibitory concentration (MIC)
# Source text: as §1, §2, §3, §4
# X-528 is Pseudomonas aerogenosa
# [9] = tested on: penicillin-resistant Staphylococcus aureus strain V-32; assay: Gradient plate in vitro MIC, strain V32; settings: V32, G+; for MIC: Staphylococcus aureus, read-out: minimum inhibitory concentration (MIC)
# Source text: as §1, §2, §3, §5, §6, §7, §8, §9
# [10] = tested on: Schigella sp. N-9; assay: Gradient plate in vitro MIC, N9; settings: N9, G-; for MIC: read-out: minimum inhibitory concentration (MIC)
# Source text: as §1, §2, §3
# [11] = tested on: penicillin-resistant Staphylococcus aureus strain V-84; assay: Gradient plate in vitro MIC, strain V84; settings: V84, G+; for MIC: Staphylococcus aureus, read-out: minimum inhibitory concentration (MIC)
# Source text: as §1, §2, §3, §5, §6, §7, §8, §9
# [12] = tested on: B. subtilis; assay: Bioautograph test against B. subtilis; settings: at 1 microgram/milliliter
# Method: Each of the cis-and trans-isomers of tert-butyl 3-(2'-cyanovinyl)-7-phenoxyacetamido-3-cephem-4-carboxylate from Example 17 was in turn treated with 98-100 percent formic acid for 1 hour at room temperature to cleave the tert-butyl ester groups therefrom. After evaporation under reduced pressure of the excess formic acid, the acid residue was separated as an oil.
# [13] = tested on: Gram positive and Gram negative microorganisms; assay: Standard gradient plate assay, Gram positive and Gram negative microorganisms
# Source text: as §1, §2, §3
# [14] = tested on: Gram positive and Gram negative microorganisms; assay: Disc plate assay; settings: variety of Gram positive and Gram negative microorganisms
# Method: (§10) A solution of 25 mg. of tert-butyl 7-(2'-tert-butoxycarbonylamino-2'-phenylacetamido)-3-(2'-tert-butoxycarbonylvinyl)-3-cephem-4-carboxylate, prepared as described in Example 19, in 5 cc of 98-100 percent formic acid was allowed to stand for 1 hour at room temperature. After evaporating under reduced pressure the formic acid, the acid residue was taken up in trifluoroacetic acid and the NMR spectrum was taken.
# [15] = tested on: Sarcina lutea; assay: Bioautograph against Sarcina lutea
# Method: as §10
compound,measurement,setting,value
O=C(O)C=CC1=C(C(=O)O)N2C(=O)C(NC(=O)[C@H](O)c3ccccc3)C2SC1 (stereo partly shown),MIC,[1],0.6 µg/mL
same,MIC,[2],> 20 µg/mL
same,MIC,[3],1 µg/mL
same,MIC,[4],5 µg/mL
same,MIC,[5],> 20 µg/mL
same,MIC,[6],5.7 µg/mL
same,MIC,[7],> 50 µg/mL
same,MIC,[8],> 50 µg/mL
same,MIC,[9],> 20 µg/mL
same,MIC,[10],3.3 µg/mL
same,MIC,[11],11.2 µg/mL
O=C(O)C=CC1=C(C(=O)O)N2C(=O)C(NC(=O)C(C(=O)O)c3ccccc3)[C@H]2SC1 (stereo partly shown) [7-(2'-carboxy-2'-phenylacetamido)-3-(2'-carboxyvinyl)-3-cephem-4-carboxylic acid],MIC,[1],1 µg/mL
same,MIC,[2],> 20 µg/mL
same,MIC,[3],2 µg/mL
same,MIC,[4],35 µg/mL
same,MIC,[5],> 20 µg/mL
same,MIC,[6],36.5 µg/mL
same,MIC,[7],< 8 µg/mL
same,MIC,[8],29.5 µg/mL
same,MIC,[9],> 20 µg/mL
same,MIC,[10],7 µg/mL
same,MIC,[11],> 20 µg/mL
CCOC(=O)C=CC1=C(C(=O)O)N2C(=O)C(NC(=O)Cc3cccs3)C2SC1 (stereo not shown),MIC,[1],4.7 µg/mL
same,MIC,[2],6.2 µg/mL
same,MIC,[3],3.3 µg/mL
same,MIC,[4],5.3 µg/mL
same,MIC,[5],> 20 µg/mL
same,MIC,[6],3.8 µg/mL
same,MIC,[7],> 50 µg/mL
same,MIC,[8],> 50 µg/mL
same,MIC,[9],7.5 µg/mL
same,MIC,[10],2.6 µg/mL
same,MIC,[11],7.1 µg/mL
"N#C/C=C/C1=C(C(=O)O)N2C(=O)C(NC(=O)COc3ccccc3)C2SC1 (single isomer, unassigned; isomer 3) [Example 20 trans-isomer, 3-(2-cyanovinyl)-7-phenoxyacetamido-3-cephem-4-carboxylic acid]",antibiotic activity zone on bioautograph,[12],large antibiotic activity zone
same,"gradient plate MIC, trans-isomer compared with cis-isomer",[13]; against both Gram positive and Gram negative microorganisms,more active than the cis-isomer
"NC(C(=O)NC1C(=O)N2C(C(=O)O)=C(C=CC(=O)O)CS[C@H]12)c1ccccc1 (stereo partly shown) [Example 23, 7-(2'-amino-2'-phenylacetamido)-3-(2'-carboxyvinyl)-3-cephem-4-carboxylic acid]",antibiotic activity in disc plate assay,[14],antibiotic activity
same,antibiotically active zone on bioautograph,[15]; acid residue after formic acid/trifluoroacetic acid,only one antibiotically active zone
same,polarity of the active zone on the bioautograph,[15]; compared with cephalexin,more polar than cephalexin
"CCOC(=O)C=CC1=C(C(=O)O)N2C(=O)C(NC(=O)COc3ccccc3)[C@H]2SC1 (stereo partly shown) [Example 3, 3-(2'-ethoxycarbonylvinyl)-7-phenoxyacetamido-3-cephem-4-carboxylic acid]",activity as an antibiotic in gradient plate tests,[13]; variety of both Gram positive and Gram negative microorganisms,showed activity as an antibiotic
CCOC(=O)C=CC1=C(C(=O)O)N2C(=O)C(NC(=O)C(C(=O)O)c3ccccc3)[C@H]2SC1 (stereo partly shown) [7-(2'-carboxy-2'-phenylacetamido)-3-(2'-ethoxycarbonylvinyl)-3-cephem-4-carboxylic acid],MIC,[1],0.8 µg/mL
same,MIC,[2],7.9 µg/mL
same,MIC,[3],3 µg/mL
same,MIC,[4],2.5 µg/mL
same,MIC,[5],> 20 µg/mL
same,MIC,[6],6.3 µg/mL
same,MIC,[7],0.6 µg/mL
same,MIC,[8],42.2 µg/mL
same,MIC,[9],10.3 µg/mL
same,MIC,[10],1 µg/mL
same,MIC,[11],11.4 µg/mL
3-(2-cyanovinyl)-7-phenoxyacetamido-3-cephem-4-carboxylic acid,minimum inhibitory concentration (MIC),[1],12.1 micrograms of compound per mil
same,minimum inhibitory concentration (MIC),[3],38.2 micrograms of compound per mil
same,minimum inhibitory concentration (MIC),[4],110.0 micrograms of compound per mil
same,minimum inhibitory concentration (MIC),[5],> 20 micrograms of compound per mil
same,minimum inhibitory concentration (MIC),[6],102.0 micrograms of compound per mil
same,minimum inhibitory concentration (MIC),[7],21.0 micrograms of compound per mil
same,minimum inhibitory concentration (MIC),[8],162.0 micrograms of compound per mil
same,minimum inhibitory concentration (MIC),[9],6.1 micrograms of compound per mil
same,minimum inhibitory concentration (MIC),[10],40.4 micrograms of compound per mil
same,minimum inhibitory concentration (MIC),[11],3.8 micrograms of compound per mil
"N#C/C=C\C1=C(C(=O)O)N2C(=O)C(NC(=O)COc3ccccc3)C2SC1 (single isomer, unassigned; isomer 3) [Example 20 cis-isomer, 3-(2-cyanovinyl)-7-phenoxyacetamido-3-cephem-4-carboxylic acid]",antibiotic activity zone on bioautograph,[12],large antibiotic activity zone

# Reference: patent US4065620A, “3-(Substituted) vinyl cephalosporins” (Eli Lilly and Company, priority 1971, dated 1977)
